Assay results taken from patent US20130344595A1, “CULTURE MEDIA FOR DEVELOPMENTAL CELLS CONTAINING ELEVATED CONCENTRATIONS OF LIPOIC ACID” (Vitrolife Sweden AB, priority 2007, published 2013).
Marks after values point to notes of the source that are not given here.

Columns and labels:
[1] = system: rabbit morulae; conditions: omission from Ham's F10 medium; cited from earlier work
[2] = system: human embryos; experiment: Human embryo development in G1 medium with 10 μM lipoic acid (Example 5); format: cell-based; conditions: G1 medium with 10 μM lipoic acid versus G1 free of lipoic acid
Experimental: In accordance with the present invention, the effect of lipoic acid-containing culture media on human embryo development is examined. Good prognosis patients have half of their embryos cultured in G1 culture media free of lipoic acid (i.e., the control), while the other half are cultured in G1 medium containing 10 μM lipoic acid (i.e., the elevated lipoic acid medium).

[3] = system: reactive oxygen species (ROS); experiment: ROS generation in culture medium by UV photo-oxidation, H2DFFDA fluorescent dye (Example 4); conditions: all concentrations; compared to vehicle group; UV photo-oxidation in GMOPS-Plus
Experimental: In order to determine whether the lipoic acid is having an antioxidant effect, a series of experiments were performed using the fluorescent dye […] (H2DFFDA), which reacts with reactive oxygen species (ROS) intermediates. 200 μM H2DFFDA in DMSO was added to GMOPS-Plus (available from Vitrolife). Lipoic acid dissolved in EtOH with the final concentration within the media being 0.1% EtOH. Each drop was then photo-oxidized with 4 successive 2.5 minute exposures using UV light to generate ROS.
All results are based on comparison to the vehicle group ([…]), which was not significant in comparison to the control group.

[4] = system: CF1 mouse embryos; experiment: Sequential G1/G2 culture of mouse embryos, G1 with or without 10 μM lipoic acid (Example 2); format: cell-based; conditions: low O2
Experimental: CF1 mouse embryos were grown in either G1 alone or G1 plus 10 μM lipoic acid. After 48 hours, embryos from both treatment groups were moved to G2. All cultures were incubated in low O2. Compaction rates were assessed and blastocyst developmental rates were measured at 71 and 78 hours. Blastocysts were then differentially stained and counted.

[5] = system: CF1 mouse embryos; experiment: Blastocyst development and cell number of mouse embryos cultured with lipoic acid at 20% or 5% O2 (Example 1); format: cell-based
Experimental: The following procedure was carried out. Lipoic acid was dissolved in ethanol. A 100 mM working solution in 100% EtOH was prepared with appropriate dilutions made to the culture media thereafter (1 μM, 10 μM and 100 μM final concentrations). A vehicle control, equivalent to the dilution of the highest concentration solution (0.1%), was used in all culture experiments. Zygotes were collected from 4-week-old CF1 outbred female mice. Cumulus-enclosed zygotes were collected at 21 h post hCG and denuded with 1 mg/mL hyaluronidase in G-MOPS supplemented with 5 mg/mL human serum albumin. Cultures were incubated at either 5% or 20% O2. After four days of culture, blastocyst development was analyzed and cell number was counted in 200 cultured embryos per treatment.
The results are shown in FIGS. 1 (20% O2) and 2 (5% O2). The data are based on 200 embryos cultured per study. […] Furthermore, the beneficial effect of lipoic acid was lost at higher concentrations. […] The data for FIGS. 1 and 2 are presented in Tables 6 and 7, respectively, which also provide the results for the trophectoderm, inner cell mass (ICM) and ICM ratio.

[6] = system: 8-cell hamster embryos; conditions: omission from Ham's F10 medium; cited from earlier work
[7] = system: CF1 mouse zygote; experiment: Effective concentration range of lipoic acid on mouse zygote development at 20% oxygen (Example 3); format: cell-based; conditions: for Day 3 (% compacting) / Day 4 (% Total Blast) / Day 5 (% Hatching) / Day 5 (% Total Blast) / Total Cell Number: 20% oxygen
From the text: The effective range of lipoic acid concentrations to enhance blastocyst development and cell number was established using CF1 mouse embryos.

[8] = G1 + 10 μM LA for 48 hours, then G2

SMILES: O=C(O)CCCC[C@@H]1CCSS1 (racemic) [lipoic acid]
- effect of omission of lipoic acid on culture of rabbit morulae to expanded blastocysts [1]: no significant effect
- human embryo development up to the 8-cell and blastocyst stage [2]: Embryos develop quicker up to the 8-cell and blastocyst stage
- generation of ROS within the culture media [3]: concentration-dependent decrease in the generation of reactive oxygen
- inner cell mass number and percentage inner cell mass of total ([4]; 10 μM lipoic acid added to G1): increased inner cell mass number and percentage inner cell mass of total
- % Expanded on Day 4 [4, 8]: 39.7%
- % ICM [4, 8]: 31%**
- Day 3 % a.m. [4, 8]: 81.0%
- Day 4 blast % a.m. [4, 8]: 22.4%
- Day 4 blast % p.m. [4, 8]: 65.5%
- ICM [4, 8]: 16 ± 1
- TE [4, 8]: 34 ± 2
- Total [4, 8]: 50 ± 2
- blastocyst cell number ([5]; 1 μM lipoic acid, at either 5% or 20% oxygen): no statistically significant increase in cell number
- blastocyst cell number ([5]; 10 μM lipoic acid, outbred (CF1) mouse embryos): significantly higher cell number
- blastocyst cell number versus control medium ([5]; 100 μM lipoic acid): significantly lower cell numbers
- Day 5 % Blast ([5]; lipoic acid 1 μM, 5% O2): 76.15%
- ICM ([5]; lipoic acid 1 μM, 5% O2): 16.83
- ICM ratio ([5]; lipoic acid 1 μM, 5% O2): 19.71%
- total cell # ([5]; lipoic acid 1 μM, 5% O2): 85.40
- trophectoderm ([5]; lipoic acid 1 μM, 5% O2): 68.57
- Day 5 % Blast ([5]; lipoic acid 1 μM, 20% O2): 59.18%
- ICM ([5]; lipoic acid 1 μM, 20% O2): 13.07
- ICM ratio ([5]; lipoic acid 1 μM, 20% O2): 19.12%
- total cell # ([5]; lipoic acid 1 μM, 20% O2): 68.37
- trophectoderm ([5]; lipoic acid 1 μM, 20% O2): 55.30
- Day 5 % Blast ([5]; lipoic acid 10 μM, 5% O2): 76.74%^#
- ICM ([5]; lipoic acid 10 μM, 5% O2): 22.49^####
- ICM ratio ([5]; lipoic acid 10 μM, 5% O2): 22.10%
- total cell # ([5]; lipoic acid 10 μM, 5% O2): 101.77^###
- trophectoderm ([5]; lipoic acid 10 μM, 5% O2): 79.28^##
- Day 5 % Blast ([5]; lipoic acid 10 μM, 20% O2): 61.47%^‡
- ICM ([5]; lipoic acid 10 μM, 20% O2): 16.4731^‡‡‡‡
- ICM ratio ([5]; lipoic acid 10 μM, 20% O2): 21.25%
- total cell # ([5]; lipoic acid 10 μM, 20% O2): 77.527^‡‡‡
- trophectoderm ([5]; lipoic acid 10 μM, 20% O2): 61.054^‡‡
- Day 5 % Blast ([5]; lipoic acid 100 μM, 5% O2): 53.13%
- ICM ([5]; lipoic acid 100 μM, 5% O2): 13.61
- ICM ratio ([5]; lipoic acid 100 μM, 5% O2): 18.33%
- total cell # ([5]; lipoic acid 100 μM, 5% O2): 74.21
- trophectoderm ([5]; lipoic acid 100 μM, 5% O2): 60.61
- Day 5 % Blast ([5]; lipoic acid 100 μM, 20% O2): 42.57%
- ICM ([5]; lipoic acid 100 μM, 20% O2): 10.2916
- ICM ratio ([5]; lipoic acid 100 μM, 20% O2): 19.07%
- total cell # ([5]; lipoic acid 100 μM, 20% O2): 53.9583
- trophectoderm ([5]; lipoic acid 100 μM, 20% O2): 43.6667
- effect of omission of lipoic acid on development of 8-cell hamster embryos [6]: no significant effect on the development at any stage of culture
- Day 3 (% compacting) ([7]; 5 μM LA): 38.9%
- Day 4 (% Total Blast) ([7]; 5 μM LA): 51.6%
- Day 5 (% Hatching) ([7]; 5 μM LA): 40.9%
- Day 5 (% Total Blast) ([7]; 5 μM LA): 81.8%
- Total Cell Number ([7]; 5 μM LA): 90.2 ± 4.8
- Day 3 (% compacting) ([7]; 10 μM LA): 51.4%
- Day 4 (% Total Blast) ([7]; 10 μM LA): 62.9%
- Day 5 (% Hatching) ([7]; 10 μM LA): 40.0%
- Day 5 (% Total Blast) ([7]; 10 μM LA): 92.7%
- Total Cell Number ([7]; 10 μM LA): 91.3 ± 4.7
- Day 3 (% compacting) ([7]; 20 μM LA): 26.5%
- Day 4 (% Total Blast) ([7]; 20 μM LA): 42.9%
- Day 5 (% Hatching) ([7]; 20 μM LA): 31.3%
- Day 5 (% Total Blast) ([7]; 20 μM LA): 73.1%
- Total Cell Number ([7]; 20 μM LA): 94.0 ± 7.2
- Day 3 (% compacting) ([7]; 40 μM LA): 22.9%
- Day 4 (% Total Blast) ([7]; 40 μM LA): 37.3%
- Day 5 (% Hatching) ([7]; 40 μM LA): 28.4%
- Day 5 (% Total Blast) ([7]; 40 μM LA): 74.6%
- Total Cell Number ([7]; 40 μM LA): 69.4 ± 5.8
- Day 3 (% compacting) ([7]; 80 μM LA): 22.9%
- Day 4 (% Total Blast) ([7]; 80 μM LA): 4.6%
- Day 5 (% Hatching) ([7]; 80 μM LA): 9.4%
- Day 5 (% Total Blast) ([7]; 80 μM LA): 29.7%
- Total Cell Number ([7]; 80 μM LA): 34.0
- blastocyst development by day 5 and cell number relative to the control ([7]; above 5 to 40 μM): lower blastocyst development by day 5 and lower cell number relative to the control
- effect on progression to blastocyst stage, blastocyst cell number and inner cell mass ([7]; lipoic acid at less than 5 μM): little, if any, effect
- day 4 blastocyst development and cell numbers ([7]; lipoic acid greater than about 40 μM): lower day 4 blastocyst development and decreased cell numbers
- concentration of maximum improvement to embryo development ([7]; within the range 5 μM to 40 μM): approximately 10 μM
